Results reported in ChEMBL document CHEMBL4308841, “Synthesis, in vitro antiproliferative activity, and kinase inhibitory effects of pyrazole-containing diarylureas and diarylamides” (Eur J Med Chem, 2018).

Key:
NCI-H226 [1] = assay: Growth inhibition of human NCI-H226 cells incubated for 48 hrs by sulforhodamine B assay; format: functional, cell-based; conditions: NCI-H226, 48 h
HCT-116 = assay: Growth inhibition of human HCT116 cells incubated for 48 hrs by sulforhodamine B assay; format: functional, cell-based; conditions: HCT-116, 48 h
KM12 [2] = assay: Growth inhibition of human KM12 cells incubated for 48 hrs by sulforhodamine B assay; format: functional, cell-based; conditions: KM12, 48 h
SF-268 = assay: Growth inhibition of human SF268 cells incubated for 48 hrs by sulforhodamine B assay; format: functional, cell-based; conditions: SF-268, 48 h
UACC-62 [3] = assay: Growth inhibition of human UACC62 cells incubated for 48 hrs by sulforhodamine B assay; format: functional, cell-based; conditions: UACC-62, 48 h
ACHN = assay: Growth inhibition of human ACHN cells incubated for 48 hrs by sulforhodamine B assay; format: functional, cell-based
CAKI-1 = assay: Growth inhibition of human Caki1 cells incubated for 48 hrs by sulforhodamine B assay; format: functional, cell-based; conditions: CAKI-1, 48 h
DU-145 = assay: Growth inhibition of human DU145 cells incubated for 48 hrs by sulforhodamine B assay; format: functional, cell-based; conditions: DU-145, 48 h
NCI-H23 [4] = assay: Growth inhibition of human NCI-H23 cells assessed as cell growth at 0.01 uM incubated for 48 hrs by sulforhodamine B assay relative to control; format: functional; conditions: NCI-H23, 48 h, read-out: Activity
SNB-75 = assay: Growth inhibition of human SNB75 cells assessed as cell growth at 0.01 uM incubated for 48 hrs by sulforhodamine B assay relative to control; format: functional; conditions: SNB-75, 48 h, read-out: Activity
SK-MEL-5 = assay: Growth inhibition of human SK-MEL-5 cells assessed as cell growth at 0.01 uM incubated for 48 hrs by sulforhodamine B assay relative to control; format: functional; conditions: SK-MEL-5, 48 h, read-out: Activity
MDA-MB-468 = assay: Growth inhibition of human MDA-MB-468 cells assessed as cell growth at 0.01 uM incubated for 48 hrs by sulforhodamine B assay relative to control; format: functional; conditions: MDA-MB-468, 48 h, read-out: Activity
NCI-H226 [5] = assay: Growth inhibition of human NCI-H226 cells assessed as cell growth at 0.1 uM incubated for 48 hrs by sulforhodamine B assay relative to control; format: functional; conditions: NCI-H226, 48 h, read-out: Activity
NCI-H23 [6] = assay: Growth inhibition of human NCI-H23 cells assessed as cell growth at 0.1 uM incubated for 48 hrs by sulforhodamine B assay relative to control; format: functional; conditions: NCI-H23, 48 h, read-out: Activity
U-251 = assay: Growth inhibition of human U251 cells assessed as cell growth at 0.1 uM incubated for 48 hrs by sulforhodamine B assay relative to control; format: functional; conditions: U-251, 48 h, read-out: Activity
SK-MEL-28 = assay: Growth inhibition of human SK-MEL-28 cells assessed as cell growth at 0.1 uM incubated for 48 hrs by sulforhodamine B assay relative to control; format: functional; conditions: SK-MEL-28, 48 h, read-out: Activity
OVCAR-8 = assay: Growth inhibition of human OVCAR8 cells assessed as cell growth at 0.1 uM incubated for 48 hrs by sulforhodamine B assay relative to control; format: functional; conditions: OVCAR-8, 48 h, read-out: Activity
SNB-19 = assay: Growth inhibition of human SNB19 cells assessed as cell growth at 1 uM incubated for 48 hrs by sulforhodamine B assay relative to control; format: functional; conditions: SNB-19, 48 h, read-out: Activity
UACC-62 [7] = assay: Growth inhibition of human UACC62 cells assessed as cell growth at 1 uM incubated for 48 hrs by sulforhodamine B assay relative to control; format: functional; conditions: UACC-62, 48 h, read-out: Activity
OVCAR-4 = assay: Growth inhibition of human OVCAR4 cells assessed as cell growth at 1 uM incubated for 48 hrs by sulforhodamine B assay relative to control; format: functional; conditions: OVCAR-4, 48 h, read-out: Activity
RXF 393 = assay: Growth inhibition of human RXF393 cells assessed as cell growth at 1 uM incubated for 48 hrs by sulforhodamine B assay relative to control; format: functional; conditions: RXF 393, 48 h, read-out: Activity
SN12C = assay: Growth inhibition of human SN12C cells assessed as cell growth at 1 uM incubated for 48 hrs by sulforhodamine B assay relative to control; format: functional; conditions: read-out: Activity
RPMI-8226 = assay: Growth inhibition of human RPMI8226 cells assessed as cell growth at 100 uM incubated for 48 hrs by sulforhodamine B assay relative to control; format: functional; conditions: RPMI-8226, 48 h, read-out: Activity
SR = assay: Growth inhibition of human SR cells assessed as cell growth at 100 uM incubated for 48 hrs by sulforhodamine B assay relative to control; format: functional; conditions: read-out: Activity
KM12 [8] = assay: Growth inhibition of human KM12 cells assessed as cell growth at 100 uM incubated for 48 hrs by sulforhodamine B assay relative to control; format: functional; conditions: KM12, 48 h, read-out: Activity
UACC-62 [9] = assay: Growth inhibition of human UACC62 cells assessed as cell growth at 100 uM incubated for 48 hrs by sulforhodamine B assay relative to control; format: functional; conditions: UACC-62, 48 h, read-out: Activity
A498 = assay: Growth inhibition of human A498 cells assessed as cell growth at 100 uM incubated for 48 hrs by sulforhodamine B assay relative to control; format: functional; conditions: A498, 48 h, read-out: Activity
PC-3 = assay: Growth inhibition of human PC3 cells assessed as cell growth at 100 uM incubated for 48 hrs by sulforhodamine B assay relative to control; format: functional; conditions: PC-3, 48 h, read-out: Activity
[10] = read-out: pLC50 (the source's name) (converted)
[11] = read-out: LC50 (the source's name)

With `COc1cc(Cl)cc(-c2nn(-c3cccc(NC(=O)Nc4cc(C(F)(F)F)cc(C(F)(F)F)c4)c3)cc2-c2ccncc2)c1` the IC50 (NCI-H226 [1]) was 700 nM, the GI50 (NCI-H226 [1]; read-out: GI50) was 704 nM and the LC50 (NCI-H226 [1]; read-out: LC50) was over 100 µM. For the same compound, the TGI (NCI-H226 [1]; read-out: TGI) was 5.17 µM, the GI50 (NCI-H226 [1]; read-out: pGI50 (converted)) was 708 nM and the LC50 (NCI-H226 [1]; read-out: pLC50 (converted)) was over 100 µM. It also gave a TGI (NCI-H226 [1]; read-out: pTGI (converted)) of 5.13 µM, an IC50 (HCT-116) of 330 nM and a GI50 (HCT-116; read-out: GI50) of 332 nM. The TGI (HCT-116; read-out: TGI) was 1270 nM, the GI50 (HCT-116; read-out: pGI50 (converted)) was 331 nM and the CC50 (HCT-116; [10]) was 6.61 µM. For the same compound, the TGI (HCT-116; read-out: pTGI (converted)) was 1260 nM, the IC50 (KM12 [2]) was 510 nM and the GI50 (KM12 [2]; read-out: GI50) was 606 nM. The CC50 (KM12 [2]; [11]) was 0.0279 µM, the TGI (KM12 [2]; read-out: TGI) was 2750 nM and the GI50 (KM12 [2]; read-out: pGI50 (converted)) was 501 nM. For the same compound, the CC50 (KM12 [2]; [10]) was 28.2 µM, the TGI (KM12 [2]; read-out: pTGI (converted)) was 2750 nM and the IC50 (SF-268) was 620 nM. For the same compound, the GI50 (SF-268; read-out: GI50) was 618 nM, the CC50 (SF-268; [11]) was 0.0307 µM and the TGI (SF-268; read-out: TGI) was 3.25 µM. For the same compound, the GI50 (SF-268; read-out: pGI50 (converted)) was 617 nM, the CC50 (SF-268; [10]) was 30.9 µM and the TGI (SF-268; read-out: pTGI (converted)) was 3.24 µM. For the same compound, the IC50 (UACC-62 [3]) was 360 nM, the GI50 (UACC-62 [3]; read-out: GI50) was 357 nM and the CC50 (UACC-62 [3]; [11]) was 53.2 nM. For the same compound, the TGI (UACC-62 [3]; read-out: TGI) was 1500 nM, the GI50 (UACC-62 [3]; read-out: pGI50 (converted)) was 355 nM and the CC50 (UACC-62 [3]; [10]) was 5370 nM. The TGI (UACC-62 [3]; read-out: pTGI (converted)) was 1510 nM, the IC50 (ACHN) was 400 nM and the GI50 (ACHN; read-out: GI50) was 397 nM. It also gave a CC50 (ACHN; [11]) of over 100 µM, a TGI (ACHN; read-out: TGI) of 12.5 µM and a GI50 (ACHN; read-out: pGI50 (converted)) of 398 nM. It also gave a CC50 (ACHN; [10]) of over 100 µM, a TGI (ACHN; read-out: pTGI (converted)) of 12.6 µM and an IC50 (CAKI-1) of 420 nM. It also gave a GI50 (CAKI-1; read-out: GI50) of 420 nM, a TGI (CAKI-1; read-out: TGI) of 4.75 µM and a GI50 (CAKI-1; read-out: pGI50 (converted)) of 417 nM. For the same compound, the CC50 (CAKI-1; [10]) was 61.7 µM, the TGI (CAKI-1; read-out: pTGI (converted)) was 4.79 µM and the IC50 (DU-145) was 470 nM. It also gave a GI50 (DU-145; read-out: GI50) of 459 nM, a TGI (DU-145; read-out: TGI) of 10.6 µM and a GI50 (DU-145; read-out: pGI50 (converted)) of 468 nM. It also gave a CC50 (DU-145; [10]) of 38.9 µM, a TGI (DU-145; read-out: pTGI (converted)) of 10.7 µM and a growth at 0.01 µM (NCI-H23 [4]) of 94%. The growth at 0.01 µM (SNB-75) was 71%, the growth at 0.01 µM (SK-MEL-5) was 100% and the growth at 0.01 µM (MDA-MB-468) was 97%. It also gave a growth at 0.1 µM (NCI-H226 [5]) of 102%, a growth at 0.1 µM (NCI-H23 [6]) of 95% and a growth at 0.1 µM (U-251) of 91%. For the same compound, the growth at 0.1 µM (SK-MEL-28) was 102%, the growth at 0.1 µM (OVCAR-8) was 105% and the growth at 1 µM (SNB-19) was 28%. For the same compound, the growth at 1 µM (UACC-62 [7]) was 18%, the growth at 1 µM (OVCAR-4) was 30% and the growth at 1 µM (RXF 393) was 50%. For the same compound, the growth at 1 µM (SN12C) was 17%, the growth at 100 µM (RPMI-8226) was -8% and the growth at 100 µM (SR) was -8%. It also gave a growth at 100 µM (KM12 [8]) of -83%, a growth at 100 µM (UACC-62 [9]) of -71% and a growth at 100 µM (A498) of -59%. The growth at 100 µM (PC-3) was -44%.
